Results as given in patent US9624209B2, “Substituted phenylureas and phenylamides as vanilloid receptor ligands” (Gruenenthal GmbH, priority 2009, dated 2017).

Biological target: T1, vanilloid receptor 1 (VR1/TRPV1 receptor) (Homo sapiens, UniProt Q8NER1)
T1 construct: expressed in transfected cells; host or cells: CHO K1 cells (ECACC), stably transfected
Assay: VR1/TRPV1 receptor affinity, capsaicin stimulus (human)
Type: cell-based, human being
Settings: @ 5 μM, Tables 8-12

T1 sequence (Q8NER1 whole entry): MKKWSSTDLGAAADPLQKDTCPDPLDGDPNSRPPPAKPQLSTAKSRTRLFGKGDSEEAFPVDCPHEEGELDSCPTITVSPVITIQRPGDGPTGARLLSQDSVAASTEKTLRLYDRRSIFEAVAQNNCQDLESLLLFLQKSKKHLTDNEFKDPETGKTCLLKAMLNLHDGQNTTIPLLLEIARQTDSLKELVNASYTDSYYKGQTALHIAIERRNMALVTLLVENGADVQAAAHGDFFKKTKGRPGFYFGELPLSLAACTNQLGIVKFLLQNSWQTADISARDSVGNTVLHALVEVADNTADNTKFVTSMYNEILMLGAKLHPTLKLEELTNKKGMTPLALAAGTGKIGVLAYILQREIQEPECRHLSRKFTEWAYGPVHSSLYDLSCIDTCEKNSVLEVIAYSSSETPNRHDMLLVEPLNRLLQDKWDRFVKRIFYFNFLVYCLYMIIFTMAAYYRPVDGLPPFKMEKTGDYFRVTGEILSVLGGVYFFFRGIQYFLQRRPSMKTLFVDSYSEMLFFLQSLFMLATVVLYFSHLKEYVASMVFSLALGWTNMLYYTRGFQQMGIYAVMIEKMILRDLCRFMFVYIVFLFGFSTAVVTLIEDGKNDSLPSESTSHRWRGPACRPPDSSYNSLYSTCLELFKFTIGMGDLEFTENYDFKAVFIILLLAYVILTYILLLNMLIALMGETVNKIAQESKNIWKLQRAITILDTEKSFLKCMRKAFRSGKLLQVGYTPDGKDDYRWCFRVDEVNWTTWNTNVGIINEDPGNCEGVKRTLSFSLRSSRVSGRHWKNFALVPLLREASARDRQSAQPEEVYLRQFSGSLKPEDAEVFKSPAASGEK

| (f) Ki (human being) [nM] Cap: inhibition (as a percentage) | Substance |
| --- | --- |
| 48% @ 5 μM | 1-[[2-(3,4-Difluoro-phenyl)-5-(trifluoromethyl)-2H-pyrazol-3-yl]-methyl]-3-[3-fluoro-4-(2-hydroxy-ethoxy-methyl)-phenyl]-urea [Example A132] |
| 53% @ 5 μM | 1-[[5-tert-Butyl-2-(3-fluorophenyl)-2H-pyrazol-3-yl]-methyl]-3-[3-fluoro-4-(3-hydroxy-azetidin-1-yl)-phenyl]-urea [Example C8] |

| Substance | (f) Ki (human being) [nM] Cap: inhibition (as a percentage) |
| --- | --- |
| 2-Chloro-4-[[[2-(3-chlorophenyl)-5-(trifluoromethyl)-2H-pyrazol-3-yl]-methyl-carbamoyl]amino]-benzoic acid [Example E54] | 20% @ 5 μM |

Same assay, conditions: Tables 8-12, read-out: (f) Ki (human being) [nM] Cap

| Substance | Ki |
| --- | --- |
| 1-[[5-tert-Butyl-2-(3-chlorophenyl)-2H-pyrazol-3-yl]-methyl]-3-[3-fluoro-4-(hydroxymethyl)-phenyl]-urea [Example A55] | 3 nM |
| 4-[1-[[2-(3-Chlorophenyl)-5-(trifluoromethyl)-2H-pyrazol-3-yl]-methyl-carbamoyl]-ethyl]-2-fluoro-N-(oxetan-3-yl)-benzamide [Example E19] | 41 nM |
| 4-[1-[[2-(3-Chlorophenyl)-5-(trifluoromethyl)-2H-pyrazol-3-yl]-methyl-carbamoyl]-ethyl]-2-fluoro-N-[4-(trifluoromethyl)-phenyl]-benzamide [Example E48] | 27 nM |
| 4-[1-[[2-(3-Chlorophenyl)-5-(trifluoromethyl)-2H-pyrazol-3-yl]-methyl-carbamoyl]-ethyl]-2-fluoro-N-methyl-benzamide [Example E11] | 11 nM |
| 4-[1-[[2-(3-Chlorophenyl)-5-(trifluoromethyl)-2H-pyrazol-3-yl]-methyl-carbamoyl]-ethyl]-2-fluoro-N-thiazol-2-yl-benzamide [Example E52] | 59 nM |
| 4-[1-[[5-tert-Butyl-2-(3-chloro phenyl)-2H-pyrazol-3-yl]-methyl-carbamoyl]-ethyl]-N-(3-fluorophenyl)-benzamide [Example E40] | 4 nM |
| 4-[1-[[5-tert-Butyl-2-(3-chlorophenyl)-2H-pyrazol-3-yl]-methyl-carbamoyl]-ethyl]-2-fluoro-N-[4-(trifluoromethyl)-phenyl]-benzamide [Example E49] | 3 nM |
| 4-[1-[[5-tert-Butyl-2-(3-chlorophenyl)-2H-pyrazol-3-yl]-methyl-carbamoyl]-ethyl]-2-fluoro-N-phenyl-benzamide [Example E29] | 5 nM |
| 4-[1-[[5-tert-Butyl-2-(3-chlorophenyl)-2H-pyrazol-3-yl]-methyl-carbamoyl]-ethyl]-N-(4-chlorophenyl)-2-fluoro-benzamide [Example E35] | 2 nM |
| 4-[1-[[5-tert-Butyl-2-(3-chlorophenyl)-2H-pyrazol-3-yl]-methyl-carbamoyl]-ethyl]-N-(4-chlorophenyl)-benzamide [Example E34] | 0.5 nM |
| 4-[1-[[5-tert-Butyl-2-(3-chlorophenyl)-2H-pyrazol-3-yl]-methyl-carbamoyl]-ethyl]-N-(4-fluorophenyl)-benzamide [Example E42] | 1 nM |
| 4-[1-[[5-tert-Butyl-2-(3-chlorophenyl)-2H-pyrazol-3-yl]-methyl-carbamoyl]-ethyl]-N-[4-(trifluoromethyl)-phenyl]-benzamide [Example E47] | 3 nM |
| 4-[1-[[5-tert-Butyl-2-(3-chlorophenyl)-2H-pyrazol-3-yl]-methyl-carbamoyl]-ethyl]-N-phenyl-benzamide [Example E27] | 2 nM |
| 4-[[[2-(3-Chlorophenyl)-5-(trifluoromethyl)-2H-pyrazol-3-yl]-methyl-carbamoyl]-methyl]-2-fluoro-N-(4-fluorophenyl)-benzamide [Example E38] | 3 nM |
| 4-[[[2-(3-Chlorophenyl)-5-(trifluoromethyl)-2H-pyrazol-3-yl]-methyl-carbamoyl]-methyl]-N-(4-fluorophenyl)-benzamide [Example E36] | 14 nM |
